This is an account of results in patent US20240376097A1, “BCL-2 Inhibitor” (BeiGene Ltd., priority 2020, published 2024).

The test system of experiment [1] is BCL-2 G101V knock-in cell line H96 (derive from RS4;11). As to the kind of experiment: Bcl 2-G101V Knock-In RS4;11 Cell Proliferation Assay. Format: cell-based. As to conditions: Homo sapiens, RS4;11 Bcl-2 G101V knock-in clone H96, 48 hrs, CellTiter-GLO, read-out: Cellular proliferation assay (IC50, nM) RS4. A digest of the protocol:
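CellTiter-Glo luminescence after 48 h, 37 °C compound treatment (10 concentrations, maximum 1 μM or 10 μM) gave mean IC50 values. Cells were 50,000 per well of H96, a BCL2-G101V knock-in single clone derived from RS4;11 by Cas9 editing.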
(In ATP-based viability assays light output follows the ATP content of the culture.)

Experiment [2] deals with RS4;11 (BCL-2 dependent acute lymphoblastic leukemia cell line). As to the kind of experiment: RS4;11 Cell Proliferation Assay. Format: cell-based. To be noted: Homo sapiens, RS4-11, RS4;11 cells, read-out: Cellular proliferation assay (IC50, nM) RS4. A digest of the protocol: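 Viability measured via CellTiter-Glo luminescence after a 48 h, 37 °C exposure to compounds (10 points, highest 1 μM). Seeding was 50,000 RS4;11 cells per well in 10% FBS RPMI-1640; IC50 given as mean.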

In experiment [3] the target is Recombinant human Bcl-2 protein (Homo sapiens (Human), UniProt P10415). As to the kind of experiment: Bcl-2 TR-FRET Assay. Format: binding. As to conditions: Bcl-2 wild type, TR-FRET; read-out: Biochemical assay (IC50, nM) Bcl-2 WT. Put shortly: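 Displacement of FITC-labelled Bak peptide (0.5 nM) from 0.05 nM human Bcl-2, detected by TR-FRET with Tb-cryptate anti-6His antibody after 1 h at room temperature. Compounds, 10-point series, preincubated 0.5 h with protein in 20 mM potassium phosphate pH 7.5, 50 mM NaCl. IC50s fitted by four-parameter logistic.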

In experiment [4] the target is recombinant human Bcl-2-G101V protein (Homo sapiens (Human), UniProt P10415, G101V). Briefly: Bcl-2-G101V TR-FRET Assay. Type of experiment: binding. To be noted: Bcl-2 G101V mutant, TR-FRET; read-out: Biochemical assay (IC50, nM) Bcl-2 G101V. A digest of the protocol:
(§1)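 Ex337/em490 & 520 nm TR-FRET; % inhibition of Bcl-2-G101V–ligand interaction from 490:520 ratio vs. increasing compound conc.; IC50 by 4-parameter logistic fit.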
A general note: Time-resolved FRET reads energy transfer from a long-lived donor to a nearby acceptor.

Experiment [5] has as its system recombinant human Bcl-2-G101V protein. As to the kind of experiment: Bcl-2-G101V TR-FRET Assay. Format: binding. To be noted: ratio of biochemical IC50 Bcl-2 G101V / Bcl-2 WT. Put shortly: as §1

For `CC(C)c1ccccc1[C@@H]1CN(CC2C3CC4CC(C3)CC2C4)CCN1C1CC2(CCN(c3ccc(C(=O)NS(=O)(=O)c4ccc(NC[C@H]5CC[C@](C)(O)CC5)c([N+](=O)[O-])c4)c(Oc4cnc5[nH]ccc5c4)c3)CC2)C1` (stereo partly drawn) [Example 259, 2-((1H-pyrrolo[2,3-b]pyridin-5-yl)oxy)-4-(2-((2R)-4-(((1R,3S,5R)-adamantan-2-yl)methyl)-2-(2-isopropylphenyl)piperazin-1-yl)-7-azaspiro[3.5]nonan-7-yl)-N-((4-((((1r,4r)-4-hydroxy-4-methylcyclohexyl)methyl)amino)-3-nitrophenyl)sulfonyl)benzamide], the IC50 in experiment [1] is 4.2 nM; in experiment [2], 0.55 nM; in experiment [3], 0.91 nM; in experiment [4], 3.4 nM. In experiment [5], the “Ratio of Bcl-2 G101V/WT” value is 3.8.

On to `COc1cc(CN2CCN(C3CC4(CCN(c5ccc(C(=O)NS(=O)(=O)c6ccc(NC[C@H]7CC[C@](C)(O)CC7)c([N+](=O)[O-])c6)c(Oc6cnc7[nH]cc(F)c7c6)c5)CC4)C3)[C@H](c3ccccc3C(C)C)C2)ccc1C(C)C` [Example 264, 2-((3-fluoro-1H-pyrrolo[2,3-b]pyridin-5-yl)oxy)-N-((4-((((1r,4r)-4-hydroxy-4-methylcyclohexyl)methyl)amino)-3-nitrophenyl)sulfonyl)-4-(2-((R)-4-(4-isopropyl-3-methoxybenzyl)-2-(2-isopropylphenyl)piperazin-1-yl)-7-azaspiro[3.5]nonan-7-yl)benzamide], for which the IC50 in experiment [1] was found to be 0.78 nM; in experiment [2] it was 0.26 nM; in experiment [3], 1.9 nM; in experiment [4], 7.3 nM. Moreover, in experiment [5], the “Ratio of Bcl-2 G101V/WT” value came out at 3.8.

Regarding `COc1cc(CN2CCN(C3CC4(C3)CN(c3ccc(C(=O)NS(=O)(=O)c5ccc(NC[C@H]6CC[C@](C)(O)CC6)c([N+](=O)[O-])c5)c(Oc5cnc6[nH]ccc6c5)c3)C4)[C@H](c3ccccc3C(C)C)C2)cc2c1OC(C)(C)CC2` [Example 336, 2-((1H-pyrrolo[2,3-b]pyridin-5-yl)oxy)-N-((4-((((1r,4r)-4-hydroxy-4-methylcyclohexyl)methyl)amino)-3-nitrophenyl)sulfonyl)-4-(6-((R)-2-(2-isopropylphenyl)-4-((8-methoxy-2,2-dimethylchroman-6-yl)methyl)piperazin-1-yl)-2-azaspiro[3.3]heptan-2-yl) benzamide], the IC50 is 1.1 nM in experiment [1], 0.2 nM in experiment [2], 0.09 nM in experiment [3] and 0.38 nM in experiment [4]. In addition, the “Ratio of Bcl-2 G101V/WT” value in experiment [5] is 4.2.

With `COc1cc(CN2CCN(C3CC4(CCN(c5ccc(C(=O)NS(=O)(=O)c6ccc(NC[C@H]7CC[C@](C)(O)CC7)c([N+](=O)[O-])c6)c(Oc6cnc7[nH]ccc7c6)c5)CC4)C3)[C@H](c3ccccc3C(C)C)C2)ccc1F` [Example 121a, 2-((1H-pyrrolo[2,3-b]pyridin-5-yl)oxy)-4-(2-((R)-4-(4-fluoro-3-methoxybenzyl)-2-(2-isopropylphenyl)piperazin-1-yl)-7-azaspiro[3.5]nonan-7-yl)-N-((4-((((1r,4r)-4-hydroxy-4-methylcyclohexyl)methyl)amino)-3-nitrophenyl)sulfonyl)benzamide], the IC50 in experiment [1] worked out at 0.603 nM; in experiment [2], 0.153 nM; in experiment [3], 0.12 nM; in experiment [4] it was 0.4 nM. Moreover, in experiment [5], the “Ratio of Bcl-2 G101V/WT” value was 3.4.

Consider `COc1ccc(CN2CCN(C3CC4(CCN(c5ccc(C(=O)NS(=O)(=O)c6ccc(NC[C@H]7CC[C@](C)(O)CC7)c([N+](=O)[O-])c6)c(Oc6cnc7[nH]ccc7c6)c5)CC4)C3)C(c3ccccc3C(C)C)C2)cc1OC1CC1` (stereo partly shown) [Example 186, 2-((1H-pyrrolo[2,3-b]pyridin-5-yl)oxy)-4-(2-(4-(3-cyclopropoxy-4-methoxybenzyl)-2-(2-isopropylphenyl)piperazin-1-yl)-7-azaspiro[3.5]nonan-7-yl)-N-((4-((((1r,4r)-4-hydroxy-4-methylcyclohexyl)methyl)amino)-3-nitrophenyl)sulfonyl)benzamide], for which the IC50 in experiment [1] came out at 2.5 nM; in experiment [2] it was 0.53 nM; in experiment [3], 0.15 nM; in experiment [4] it was 0.64 nM. Moreover, in experiment [5], the “Ratio of Bcl-2 G101V/WT” value was 4.2.

On to `COc1ccc(CN2CCN(C3CC4(CCN(c5ccc(C(=O)NS(=O)(=O)c6cc7c(c([N+](=O)[O-])c6)N[C@H](C[C@H]6CC[C@H](O)CC6)CO7)c(Oc6cnc7[nH]ccc7c6)c5)CC4)C3)[C@H](c3ccccc3C(C)C)C2)cc1` [Example 221], for which the IC50 in experiment [1] came to 0.92 nM; in experiment [2] it was 0.16 nM; in experiment [3] it was 0.08 nM; in experiment [4], 0.27 nM. In experiment [5], the “Ratio of Bcl-2 G101V/WT” value was found to be 3.4.

On to `CC(C)c1ccccc1C1CN(C2CCCCC2)CCN1C1CC2(CCN(c3ccc(C(=O)NS(=O)(=O)c4ccc(NC[C@H]5CC[C@](C)(O)CC5)c([N+](=O)[O-])c4)c(Oc4cnc5[nH]ccc5c4)c3)CC2)C1` (stereo partly shown) [Example 9], for which the IC50 in experiment [1] is 4.37 nM; in experiment [2], 0.51 nM; in experiment [3], 0.034 nM; in experiment [4], 0.52 nM. Also, in experiment [5], the “Ratio of Bcl-2 G101V/WT” value turned out to be 15.3.

Take `COc1ccc(CN2CCN(C3CC4(C3)CN(c3ccc(C(=O)NS(=O)(=O)c5ccc(NCC67CC8CC(C6)C(OC)C(C8)C7)c([N+](=O)[O-])c5)c(Oc5cnc6[nH]cc(F)c6c5)c3)C4)[C@H](c3ccccc3C(C)C)C2)cc1` (stereo partly drawn) [Example 356, 2-((3-fluoro-1H-pyrrolo[2,3-b]pyridin-5-yl)oxy)-4-(6-((R)-2-(2-isopropylphenyl)-4-(4-methoxybenzyl)piperazin-1-yl)-2-azaspiro[3.3]heptan-2-yl)-N-((4-((((1S,3R,7S)-4-methoxyadamantan-1-yl)methyl)amino)-3-nitrophenyl)sulfonyl) benzamide]: the IC50 in experiment [1] came out at 1.7 nM; in experiment [2], 0.31 nM; in experiment [3] it was 1.5 nM; in experiment [4] it was 4.2 nM. Further, the “Ratio of Bcl-2 G101V/WT” value in experiment [5] is recorded as 2.9.

Turning to `COc1ccc(CN2CCN(C3CC4(CCN(c5ccc(C(=O)NS(=O)(=O)c6ccc(NC[C@H]7CC[C@](C)(O)CC7)c([N+](=O)[O-])c6)c(Oc6cnc7[nH]ccc7c6)c5)CC4)C3)C(c3ccccc3C(C)C)C2)cc1Cl` (stereo partly shown) [Example 128, 2-((1H-pyrrolo[2,3-b]pyridin-5-yl)oxy)-4-(2-(4-(3-chloro-4-methoxybenzyl)-2-(2-isopropylphenyl)piperazin-1-yl)-7-azaspiro[3.5]nonan-7-yl)-N-((4-((((1r,4r)-4-hydroxy-4-methylcyclohexyl)methyl)amino)-3-nitrophenyl)sulfonyl)benzamide], the IC50 in experiment [1] is 3.94 nM; in experiment [2] it was 0.36 nM; in experiment [3], 0.63 nM; in experiment [4], 2.6 nM. In experiment [5], the “Ratio of Bcl-2 G101V/WT” value amounted to 4.

As for `CC(C)c1ccccc1C1CN(Cc2cccc3c2N(C)CCO3)CCN1C1CC2(CCN(c3ccc(C(=O)NS(=O)(=O)c4ccc(NC[C@H]5CC[C@](C)(O)CC5)c([N+](=O)[O-])c4)c(Oc4cnc5[nH]ccc5c4)c3)CC2)C1` (stereo partly shown) [Example 200, 2-((1H-pyrrolo[2,3-b]pyridin-5-yl)oxy)-N-((4-((((1r,4r)-4-hydroxy-4-methylcyclohexyl)methyl)amino)-3-nitrophenyl)sulfonyl)-4-(2-(2-(2-isopropylphenyl)-4-((4-methyl-3,4-dihydro-2H-benzo[b][1,4]oxazin-5-yl)methyl)piperazin-1-yl)-7-azaspiro[3.5]nonan-7-yl) benzamide], the IC50 in experiment [1] came out at 1.6 nM; in experiment [2], 0.27 nM; in experiment [3] it was 0.24 nM; in experiment [4] it was 1.02 nM. In addition, the “Ratio of Bcl-2 G101V/WT” value in experiment [5] was 4.2.

`COc1cc(CN2CCN(C3CC4(C3)CN(c3ccc(C(=O)NS(=O)(=O)c5ccc(NC[C@H]6CC[C@](C)(O)CC6)c([N+](=O)[O-])c5)c(Oc5cnc6[nH]cc(F)c6c5)c3)C4)[C@H](c3ccccc3C(C)C)C2)cc2c1OC(C)(C)C=C2` [Example 330, 2-((3-fluoro-1H-pyrrolo[2,3-b]pyridin-5-yl)oxy)-N-((4-((((1r,4r)-4-hydroxy-4-methylcyclohexyl)methyl)amino)-3-nitrophenyl)sulfonyl)-4-(6-((R)-2-(2-isopropylphenyl)-4-((8-methoxy-2,2-dimethyl-2H-chromen-6-yl)methyl)piperazin-1-yl)-2-azaspiro [3.3]heptan-2-yl)benzamide]: the IC50 in experiment [1] came to 0.79 nM; in experiment [2], 0.18 nM; in experiment [3], 0.26 nM; in experiment [4], 0.62 nM. In addition, in experiment [5], the “Ratio of Bcl-2 G101V/WT” value is 2.4.
